In test [1] the test system is vancomycin-susceptible enterococci. Put plainly: broth micro-dilution, mean geometric MIC. Type of test: cell-based, Enterococcus faecium and Enterococcus faecalis. The following applies: enterococci, 24-hour incubation. (In general: Broth dilution looks for growth in wells or tubes with falling amounts of substance.)
Test [2] has as its system Staphylococcus aureus SA1199B. The test is classed as cell-based. The procedure:
(§1) The MIC's were determined using a standard broth micro-dilution assay.

Another test concerns Entercoccus faecium 276. Briefly: broth micro-dilution MIC. The test is classed as cell-based. The procedure:
as §1

In test [3] the test system is Entercoccus faecium 180-1. Put plainly: broth micro-dilution MIC. The test is classed as cell-based. The procedure:
as §1

The test system of test [4] is Staphylococcus aureus 446. Put plainly: broth micro-dilution MIC. Type of test: cell-based. The procedure: as §1
Test [5] has as its system Staphylococcus aureus SA1199A. Put plainly: broth micro-dilution MIC. The test is classed as cell-based. As for the experimental part: as §1
For test [6], the system named is Staphylococcus aureus 489. Briefly: broth micro-dilution MIC. Type of test: cell-based. The procedure: as §1
For test [7], the system named is Staphylococcus aureus X400. Put plainly: broth micro-dilution MIC. Type of test: cell-based. The procedure: as §1
In test [8] the test system is Staphylococcus aureus 447. Put plainly: broth micro-dilution MIC. Type of test: cell-based. As for the experimental part:
as §1

Test [9] deals with vancomycin-resistant enterococci. Put plainly: broth micro-dilution, mean geometric MIC. The test is classed as cell-based, Enterococcus faecium and Enterococcus faecalis. Particulars: enterococci, 24-hour incubation.
For test [10], the system named is Streptococcus pneumoniae P1. Put plainly: broth micro-dilution MIC. Type of test: cell-based. The procedure: (§2) The formula I compounds have in vitro and in vivo activity against Gram-positive pathogenic bacteria. The MIC's were determined using a standard broth micro-dilution assay.
In test [11] the test system is Staphylococcus epidermidis 270. Put plainly: broth micro-dilution MIC. Type of test: cell-based. As for the experimental part: as §2
Test [12] concerns Staphylococcus haemolyticus 415. Briefly: broth micro-dilution MIC. The test is classed as cell-based. The procedure: as §2
The test system of test [13] is Enterococcus gallinarum 245. Briefly: broth micro-dilution MIC. Type of test: cell-based. Particulars: Enterococcus gallinarum 245. As for the experimental part: as §2
Another test concerns Entercoccus faecium 180. Put plainly: broth micro-dilution MIC. Type of test: cell-based. The following applies: Entercoccus faecium 180. As for the experimental part: as §2
Test [14] deals with Streptococcus pyogenes C203. Briefly: broth micro-dilution MIC. Type of test: cell-based. As for the experimental part:
as §1

Test [15] has as its system Staphylococcus haemolyticus 105. Put plainly: broth micro-dilution MIC. The test is classed as cell-based. The procedure:
as §2

The subject of test [16] is Staphylococcus aureus S13E. The test is classed as cell-based. The procedure: as §1
The subject of test [17] is Staphylococcus aureus X778. Briefly: broth micro-dilution MIC. Type of test: cell-based. As for the experimental part:
as §1

The next test deals with Entercoccus faecium 2041. Briefly: broth micro-dilution MIC. The test is classed as cell-based. The following applies: Entercoccus faecium 2041. As for the experimental part: as §2
The subject of test [18] is Staphylococcus aureus SA1199. Briefly: broth micro-dilution MIC. Type of test: cell-based. As for the experimental part:
as §1

Values after ≈ are worked out from the molar mass of the structure shown. A value given as a limit tells only on which side of the number the result lay.

What is called MIC is the lowest concentration found to suppress growth. High values mean weaker potency, low ones greater potency. Consider `CCOc1ccc2ccccc2c1CNC1(C)CC(OC2C(Oc3c4cc5cc3Oc3ccc(cc3Cl)C(OC3CC(C)(N)C(O)C(C)O3)C3NC(=O)C(NC(=O)C5NC(=O)C(CC(N)=O)NC(=O)C(NC(=O)C(CC(C)C)NC)C(O)c5ccc(c(Cl)c5)O4)c4ccc(O)c(c4)-c4c(O)cc(O)cc4C(C(=O)O)NC3=O)OC(CO)C(O)C2O)OC(C)C1O` (centres unmarked) [Compound 60], for which the “mean geometric MIC, Vancomycin Sensitive Strains” value in test [1] was found to be 3.0 µg/mL. Further, the MIC in test [2] was 0.5 µg/mL (≈ 0.281 µM); in the test on Entercoccus faecium 276, 0.5 µg/mL (≈ 0.281 µM); in test [3] it was at most 0.06 µg/mL; in test [4], 1 µg/mL (≈ 0.563 µM); in test [5] it was at most 0.06 µg/mL; in [6] it was 0.5 µg/mL (≈ 0.281 µM). Further, the MIC in [7] was 0.5 µg/mL (≈ 0.281 µM); in test [8], 2 µg/mL (≈ 1.13 µM); in [10], at most 0.06 µg/mL; in [11], 2 µg/mL (≈ 1.13 µM); in test [12] it was 16 µg/mL (≈ 9.01 µM); in test [13], 16 µg/mL (≈ 9.01 µM). The MIC in the test with Entercoccus faecium 180 came to 4 µg/mL (≈ 2.25 µM). Besides, the “mean geometric MIC, Vancomycin Resistant Strains” value in [9] amounted to 19 µg/mL.

As to `CNC(CC(C)C)C(=O)NC1C(=O)NC(CC(N)=O)C(=O)NC2C(=O)NC3C(=O)NC(C(=O)NC(C(=O)O)c4cc(O)cc(O)c4-c4cc3ccc4O)C(OC3CC(C)(N)C(O)C(C)O3)c3ccc(c(Cl)c3)Oc3cc2cc(c3OC2OC(CO)C(O)C(O)C2OC2CC(C)(NCCc3ccc(Oc4ccccc4)cc3)C(O)C(C)O2)Oc2ccc(cc2Cl)C1O` (centres unmarked) [Compound 63], the “mean geometric MIC, Vancomycin Sensitive Strains” value in [1] was determined as 0.66 µg/mL. The minimum inhibitory concentration (MIC) in [2] was 0.5 µg/mL (≈ 0.28 µM); in test [14], at most 0.06 µg/mL; against Entercoccus faecium 276, 0.5 µg/mL (≈ 0.28 µM); in test [3], at most 0.06 µg/mL; in [4] it was 0.5 µg/mL (≈ 0.28 µM); in [6], 8 µg/mL (≈ 4.47 µM). The MIC in [7] was at most 0.06 µg/mL; in [8], 1 µg/mL (≈ 0.559 µM); in test [10], at most 0.06 µg/mL; in [11], 1 µg/mL (≈ 0.559 µM); in test [12], 8 µg/mL (≈ 4.47 µM); in test [13] it was 8 µg/mL (≈ 4.47 µM). The MIC in test [15] came to 4 µg/mL (≈ 2.24 µM). Moreover, the “mean geometric MIC, Vancomycin Resistant Strains” value in test [9] came to 54 µg/mL.

Turning to `CNC(CC(C)C)C(=O)NC1C(=O)NC(CC(N)=O)C(=O)NC2C(=O)NC3C(=O)NC(C(=O)NC(C(=O)O)c4cc(O)cc(O)c4-c4cc3ccc4O)C(OC3CC(C)(N)C(O)C(C)O3)c3ccc(c(Cl)c3)Oc3cc2cc(c3OC2OC(CO)C(O)C(O)C2OC2CC(C)(NCc3cc(C)cs3)C(O)C(C)O2)Oc2ccc(cc2Cl)C1O` (centres unmarked) [Compound 66], the “mean geometric MIC, Vancomycin Sensitive Strains” value in test [1] turned out to be 0.76 µg/mL. For the same compound, the MIC was at most 0.06 µg/mL in [16]; at most 0.06 µg/mL in the test on Entercoccus faecium 276; at most 0.06 µg/mL in [3]; at most 0.06 µg/mL in test [5]; 1 µg/mL (≈ 0.587 µM) in test [6]; at most 0.06 µg/mL in test [17]. In addition, the MIC in test [8] is 1 µg/mL (≈ 0.587 µM); in [10], at most 0.06 µg/mL; with Entercoccus faecium 2041, at most 0.06 µg/mL; in [11] it was 1 µg/mL (≈ 0.587 µM); in test [12], 8 µg/mL (≈ 4.7 µM); in [13], 8 µg/mL (≈ 4.7 µM). In the test with Entercoccus faecium 180, this compound registered an MIC of 2 µg/mL (≈ 1.17 µM). For the same compound, the “mean geometric MIC, Vancomycin Resistant Strains” value in test [9] is 16 µg/mL.

Regarding `CNC(CC(C)C)C(=O)NC1C(=O)NC(CC(N)=O)C(=O)NC2C(=O)NC3C(=O)NC(C(=O)NC(C(=O)O)c4cc(O)cc(O)c4-c4cc3ccc4O)C(OC3CC(C)(N)C(O)C(C)O3)c3ccc(c(Cl)c3)Oc3cc2cc(c3OC2OC(CO)C(O)C(O)C2OC2CC(C)(NCc3ccc(Cl)c(C(=O)c4ccccc4)c3Cl)C(O)C(C)O2)Oc2ccc(cc2Cl)C1O` (centres unmarked) [Compound 133], the “mean geometric MIC, Vancomycin Sensitive Strains” value in test [1] came to 0.13 µg/mL. Further, the MIC was 2 µg/mL (≈ 1.08 µM) in [2]; 1 µg/mL (≈ 0.539 µM) in [16]; at most 0.06 µg/mL in test [14]; 1 µg/mL (≈ 0.539 µM) against Entercoccus faecium 276; at most 0.06 µg/mL in [3]; 2 µg/mL (≈ 1.08 µM) in [4]. Also, the MIC was 1 µg/mL (≈ 0.539 µM) in test [6]; 0.5 µg/mL (≈ 0.269 µM) in [7]; 2 µg/mL (≈ 1.08 µM) in test [17]; 1 µg/mL (≈ 0.539 µM) in test [8]; at most 0.06 µg/mL in test [10]; 1 µg/mL (≈ 0.539 µM) in [11]. Besides, the MIC in [12] was 2 µg/mL (≈ 1.08 µM); in test [13], 2 µg/mL (≈ 1.08 µM); in [15] it was 2 µg/mL (≈ 1.08 µM); against Entercoccus faecium 180, 1 µg/mL (≈ 0.539 µM). Further, the “mean geometric MIC, Vancomycin Resistant Strains” value in test [9] is 4.0 µg/mL.

As to `CNC(CC(C)C)C(=O)NC1C(=O)NC(CC(N)=O)C(=O)NC2C(=O)NC3C(=O)NC(C(=O)NC(C(=O)O)c4cc(O)cc(O)c4-c4cc3ccc4O)C(OC3CC(C)(N)C(O)C(C)O3)c3ccc(c(Cl)c3)Oc3cc2cc(c3OC2OC(CO)C(O)C(O)C2OC2CC(C)(NCc3cccc(OC(=O)c4ccccc4)c3)C(O)C(C)O2)Oc2ccc(cc2Cl)C1O` (centres unmarked) [Compound 162], in [1], the “mean geometric MIC, Vancomycin Sensitive Strains” value turned out to be 0.12 µg/mL. The MIC (in [2]; in test [16]; in test [18]; in [14]; in the test on Entercoccus faecium 276; in [3]) was at most 0.06 µg/mL in each case. Besides, the MIC in test [4] was 0.5 µg/mL (≈ 0.277 µM); in test [5], at most 0.06 µg/mL; in test [7], at most 0.06 µg/mL; in [17], at most 0.06 µg/mL; in test [8] it was at most 0.06 µg/mL; in test [10], at most 0.06 µg/mL. Further, the MIC against Entercoccus faecium 2041 was at most 0.06 µg/mL; in test [11] it was at most 0.06 µg/mL; in test [12], 2 µg/mL (≈ 1.11 µM); in [13] it was 2 µg/mL (≈ 1.11 µM); against Entercoccus faecium 180 it was at most 0.06 µg/mL. In test [9], the “mean geometric MIC, Vancomycin Resistant Strains” value is 4.8 µg/mL.

Take `CNC(CC(C)C)C(=O)NC1C(=O)NC(CC(N)=O)C(=O)NC2C(=O)NC3C(=O)NC(C(=O)NC(C(=O)O)c4cc(O)cc(O)c4-c4cc3ccc4O)C(OC3CC(C)(N)C(O)C(C)O3)c3ccc(c(Cl)c3)Oc3cc2cc(c3OC2OC(CO)C(O)C(O)C2OC2CC(C)(NCC3=CCC(C(C)C)CC3)C(O)C(C)O2)Oc2ccc(cc2Cl)C1O` (centres unmarked) [Compound 171]: the “mean geometric MIC, Vancomycin Sensitive Strains” value in test [1] came to 0.22 µg/mL. The MIC in test [16] was at most 0.06 µg/mL; in test [14] it was at most 0.06 µg/mL; with Entercoccus faecium 276 it was 0.125 µg/mL (≈ 0.0723 µM); in test [3] it was at most 0.06 µg/mL; in [4], 1 µg/mL (≈ 0.578 µM); in test [5], at most 0.06 µg/mL. Besides, the minimum inhibitory concentration (MIC) in [6] is 0.5 µg/mL (≈ 0.289 µM); in [7], at most 0.06 µg/mL; in test [17] it was at most 0.06 µg/mL; in test [8] it was 1 µg/mL (≈ 0.578 µM); in test [10], at most 0.06 µg/mL; against Entercoccus faecium 2041, at most 0.06 µg/mL. Besides, the MIC in [11] was found to be 1 µg/mL (≈ 0.578 µM); in test [12] it was 8 µg/mL (≈ 4.63 µM); in [13], 8 µg/mL (≈ 4.63 µM); in test [15], 4 µg/mL (≈ 2.31 µM); against Entercoccus faecium 180 it was 1 µg/mL (≈ 0.578 µM). In addition, the “mean geometric MIC, Vancomycin Resistant Strains” value in test [9] was 9.5 µg/mL.

(Values after US5840684A, “Glycopeptide antibiotic derivatives” (Eli Lilly and Company, priority 1995, dated 1998).)
